Test systems include SR; U-251; SK-MEL-28; DU-145; HCC 2998; SF-539; PC-3; TK-10; IGROV-1; NCI/ADR-RES; NCI-H226; SW-620; SN12C; MDA-N; MDA-MB-231; M14; UO-31; EKVX; A498; KM12.
Common to all, as to test: NCI tumour cell line growth inhibition, 48 h

From ChEMBL document CHEMBL1201862, “PubChem BioAssay data set” (2004) come the findings set out here.

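Results reflect a 48-hour exposure of cells in 96-well plates to compound at five concentrations. GI50 = concentration required for 50% inhibition of growth.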 The source made the active and inactive calls. Cut-off read from the data, not from the text of the source: active = GI50 up to about 1.1 µM and inactive = higher.

On to `COC(=O)[C@@]1(C)CCC[C@]2(C(=O)O)C3Cc4occc4[C@H](C)[C@@H]3CCC21` (stereo partly drawn), for which the GI50 in the test on SR was 59.7 µM (inactive); in the test on U-251, 31.1 µM (inactive); in the test on SK-MEL-28, > 100 µM (inactive); in the test on DU-145, 44.2 µM (inactive); with HCC 2998, 30.2 µM (inactive); in the test with SF-539, 42.9 µM (inactive). Also, the GI50 was 23.7 µM (inactive) in the test with PC-3; 41 µM (inactive) in the test on TK-10; 44.6 µM (inactive) in the test with IGROV-1; 25.6 µM (inactive) in the test on NCI/ADR-RES; 84.3 µM (inactive) in the test with NCI-H226; 36 µM (inactive) with SW-620. In addition, the GI50 in the test on SN12C is 28.9 µM (inactive); with MDA-N it was 75.9 µM (inactive); with MDA-MB-231, > 100 µM (inactive); in the test on M14 it was 76.4 µM (inactive); in the test on UO-31, 42.7 µM (inactive); in the test on EKVX, 39.1 µM (inactive). Moreover, the GI50 was 68.7 µM (inactive) in the test with A498 and 49.3 µM (inactive) in the test with KM12.

Turning to `O=C(NCCN1CCOCC1)c1cn2c(ccc3sc4ccccc4c(=O)c32)n1`, the GI50 is 9.73 µM (inactive) in the test with SR; 10 µM (inactive) in the test on U-251; 46.9 µM (inactive) with SK-MEL-28; > 100 µM (inactive) with DU-145; 10.1 µM (inactive) in the test on HCC 2998; 45.3 µM (inactive) in the test on SF-539. For the same molecule, the GI50 in the test on PC-3 is 20.1 µM (inactive); with TK-10, > 100 µM (inactive); in the test with IGROV-1, 22.9 µM (inactive); in the test with NCI/ADR-RES it was 20.6 µM (inactive); with NCI-H226 it was 32 µM (inactive); in the test on SW-620 it was 4.85 µM (inactive). Also, the GI50 in the test on SN12C was 13.1 µM (inactive); in the test with MDA-N, 28.3 µM (inactive); in the test with MDA-MB-231, 5.35 µM (inactive); with UO-31, > 100 µM (inactive); in the test on EKVX, > 100 µM (inactive); with A498, 17.3 µM (inactive). In addition, in the test on KM12, the GI50 is > 100 µM (inactive).

On to `CCOC(=O)c1ccc(-n2cnc(-c3ccc([N+](=O)[O-])cc3)c2)cc1`, for which the GI50 in the test on SR was > 100 µM (inactive); with U-251 it was 25.2 µM (inactive); in the test on SK-MEL-28, > 100 µM (inactive); with DU-145, > 100 µM (inactive); with HCC 2998 it was > 100 µM (inactive); in the test on SF-539 it was > 100 µM (inactive). Further, the GI50 in the test on PC-3 is > 100 µM (inactive); with TK-10, 33.9 µM (inactive); in the test on IGROV-1 it was > 100 µM (inactive); in the test with NCI/ADR-RES, > 100 µM (inactive); in the test on NCI-H226, > 100 µM (inactive); in the test with SW-620, 75.7 µM (inactive). Moreover, the GI50 in the test on SN12C, in the test with MDA-N, in the test with MDA-MB-231, in the test on M14, in the test with UO-31 and in the test on EKVX was > 100 µM (inactive) each time. For the same molecule, the GI50 in the test on A498 and in the test on KM12 was > 100 µM (inactive) throughout.

`CC(C)=CCC[C@@H](C)C1=C(O)C(=O)C(C)=C(Nc2ccccc2Cl)C1=O`: the GI50 with SR is 11.5 µM (inactive); in the test on U-251, 16.3 µM (inactive); in the test on SK-MEL-28 it was 26.5 µM (inactive); in the test with DU-145, 36.2 µM (inactive); in the test on HCC 2998, 20.6 µM (inactive); with SF-539, 9.31 µM (inactive). Also, the GI50 in the test on PC-3 is 18.5 µM (inactive); in the test with TK-10 it was 33.7 µM (inactive); in the test on IGROV-1, 5.81 µM (inactive); with NCI/ADR-RES, 1.82 µM (inactive); in the test on NCI-H226, 13.1 µM (inactive); in the test with SW-620, 27 µM (inactive). Further, the GI50 is 25.1 µM (inactive) in the test on SN12C; 21.5 µM (inactive) with MDA-N; 40.4 µM (inactive) with MDA-MB-231; 21.4 µM (inactive) in the test with M14; 12.4 µM (inactive) with UO-31; 19 µM (inactive) in the test on EKVX. For the same molecule, the GI50 in the test on A498 was 17.5 µM (inactive); with KM12, 10.8 µM (inactive).

With `C/C1=C\CC[C@@]2(C)O[C@@H]2C[C@@H](C2(C)CO2)CC/C(C)=C/CC1` (stereo partly drawn), the GI50 is 33 µM (inactive) with SR; 15.4 µM (inactive) in the test on U-251; 21.7 µM (inactive) in the test with SK-MEL-28; 24.8 µM (inactive) in the test with DU-145; 15 µM (inactive) with HCC 2998; 21.7 µM (inactive) with SF-539. In addition, the GI50 was 22 µM (inactive) in the test with PC-3; 15.4 µM (inactive) in the test with TK-10; 32.9 µM (inactive) in the test on IGROV-1; 20.4 µM (inactive) in the test on NCI/ADR-RES; 15.2 µM (inactive) in the test with NCI-H226; 32.8 µM (inactive) in the test with SW-620. Moreover, the GI50 is 17.7 µM (inactive) in the test with SN12C; 25.6 µM (inactive) with MDA-N; 18.5 µM (inactive) in the test with MDA-MB-231; 22.8 µM (inactive) with M14; 25.2 µM (inactive) in the test with UO-31; 13.8 µM (inactive) in the test on EKVX. Moreover, the GI50 was > 100 µM (inactive) in the test on A498 and 17.5 µM (inactive) in the test on KM12.

Take `CCCCCCCCCCCCC(O)C1CCC(C(O)CCCCCCC(O)CCCCCCCC2=CC(C)OC2=O)O1` (stereo not drawn): the GI50 is 0.407 µM (active) with SR; 61.9 µM (inactive) in the test on U-251; 51.9 µM (inactive) with SK-MEL-28; > 10 µM (inactive) in the test with DU-145; 30.9 µM (inactive) in the test with HCC 2998; > 10 µM (inactive) in the test with SF-539. The GI50 is 31 µM (inactive) in the test with PC-3; 35.4 µM (inactive) in the test with TK-10; 35.5 µM (inactive) in the test on IGROV-1; 1.84 µM (inactive) with NCI/ADR-RES; 48.2 µM (inactive) in the test on NCI-H226; 8.3 µM (inactive) in the test on SW-620. Moreover, the GI50 is 25.8 µM (inactive) with SN12C; 17.7 µM (inactive) in the test with MDA-N; 28.6 µM (inactive) in the test on MDA-MB-231; 19.2 µM (inactive) in the test with M14; 3.08 µM (inactive) in the test on UO-31; 1.71 µM (inactive) with EKVX. Further, the figures for the GI50 in the test with A498 and with KM12 were 32.8 µM (inactive) and 32.4 µM (inactive), respectively.

For `COc1ccc(C(C)NNC(=O)c2cc[n+]([BH2-]C#N)cc2)c(OC)c1` (stereo not drawn), the GI50 in the test on SR, in the test on U-251, in the test with SK-MEL-28, in the test on DU-145, in the test with HCC 2998 and in the test with SF-539 was > 100 µM (inactive) each time. For the same molecule, the GI50 in the test on PC-3, in the test with TK-10, in the test with IGROV-1, with NCI/ADR-RES, in the test on NCI-H226 and in the test with SW-620 was > 100 µM (inactive) each time. The GI50 with SN12C, in the test with MDA-N, in the test on MDA-MB-231, in the test on M14, in the test with UO-31 and in the test with EKVX was > 100 µM (inactive) throughout. Besides, the GI50 in the test with A498 and in the test on KM12 was > 100 µM (inactive) each time.

Regarding `[N-]=[N+]=NC1(N=[N+]=[N-])C(=O)NN=C(c2ccccc2)C1=O` (stereo not drawn), the GI50 with SR is 32.7 µM (inactive); in the test with U-251 it was > 100 µM (inactive); in the test on SK-MEL-28, 16.3 µM (inactive); in the test on DU-145 it was > 100 µM (inactive); in the test on HCC 2998 it was > 100 µM (inactive); in the test with SF-539 it was > 100 µM (inactive). In addition, the GI50 in the test with PC-3 was > 100 µM (inactive); with TK-10, > 100 µM (inactive); with IGROV-1, > 100 µM (inactive); with NCI/ADR-RES, > 100 µM (inactive); with NCI-H226, > 100 µM (inactive); with SW-620, 50.9 µM (inactive). Besides, the GI50 was > 100 µM (inactive) in the test with SN12C; 20.7 µM (inactive) in the test on MDA-N; > 100 µM (inactive) with MDA-MB-231; > 100 µM (inactive) with M14; > 100 µM (inactive) in the test on UO-31; > 100 µM (inactive) with EKVX. The GI50 in the test with A498 and in the test on KM12 was > 100 µM (inactive) throughout.

`CO/N=C(\C)CCC#Cc1ccccc1C(=O)OC`: the GI50 in the test with SR, in the test with U-251, in the test with SK-MEL-28, in the test on DU-145, with HCC 2998 and in the test on SF-539 was > 10 µM (inactive) each time. The GI50 in the test on PC-3, in the test with TK-10, with IGROV-1, in the test with NCI/ADR-RES, in the test with NCI-H226 and in the test with SW-620 was > 10 µM (inactive) in each case. Besides, the GI50 in the test with SN12C, in the test on MDA-N, in the test with MDA-MB-231, in the test on M14, with UO-31 and in the test on EKVX was > 10 µM (inactive) throughout. Moreover, the GI50 in the test with A498 and with KM12 was > 10 µM (inactive) each time.

As for `C/C(=N\N=C(/S)SCc1ccccc1)c1ccccn1`, the GI50 was < 0.01 µM (active) in the test with SR; < 0.0192 µM (active) in the test on U-251; 1.54 µM (inactive) in the test on DU-145; 0.0476 µM (active) in the test on HCC 2998; 0.303 µM (active) in the test with SF-539; < 0.01 µM (active) in the test with PC-3. The GI50 with TK-10 is 0.339 µM (active); with IGROV-1, < 0.01 µM (active); with NCI/ADR-RES, < 0.01 µM (active); in the test with NCI-H226, < 0.01 µM (active); in the test on SW-620 it was < 0.01 µM (active); in the test with SN12C, < 0.0269 µM (active). Moreover, the GI50 with MDA-N was 0.971 µM (active); with MDA-MB-231, < 0.01 µM (active); with M14, < 0.0267 µM (active); in the test on UO-31, 0.0183 µM (active); in the test with EKVX, < 0.01 µM (active); with A498 it was 1.41 µM (inactive). For the same molecule, the GI50 in the test with KM12 is 0.266 µM (active).
